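Each compound was tested at five concentrations against cells in 96-well plates for 48 hours. GI50 is the concentration that inhibits growth by half. TGI: concentration producing complete growth inhibition.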
Key:
Assay in all cases: NCI-60 cell line screen, 48 h
CAKI-1 renal = tested on: CAKI-1 renal
HCC-2998 colon = tested on: HCC-2998 colon
PC-3 prostate = tested on: PC-3 prostate
MALME-3M melanoma = tested on: MALME-3M melanoma
SR leukemia = tested on: SR leukemia
SK-MEL-2 melanoma = tested on: SK-MEL-2 melanoma
HCT-15 colon = tested on: HCT-15 colon
MCF7 breast = tested on: MCF7 breast

Structure (SMILES)	GI50 (CAKI-1 renal)	TGI (CAKI-1 renal)	GI50 (HCC-2998 colon)	TGI (HCC-2998 colon)	GI50 (PC-3 prostate)	TGI (PC-3 prostate)	GI50 (MALME-3M melanoma)	TGI (MALME-3M melanoma)	GI50 (SR leukemia)	TGI (SR leukemia)	GI50 (SK-MEL-2 melanoma)	TGI (SK-MEL-2 melanoma)	GI50 (HCT-15 colon)	TGI (HCT-15 colon)	GI50 (MCF7 breast)	TGI (MCF7 breast)
O=C1c2cccc3c(N4CCN(c5ccc6c7c(cccc57)C(=O)N(CCN5CCNCC5)C6=O)CC4)ccc(c23)C(=O)N1CCN1CCNCC1	14.7 µM	33 µM	5.63 µM	20.9 µM	13.5 µM	32.4 µM	17.5 µM	40 µM	2.64 µM	8.66 µM	24.7 µM	67.5 µM	11.3 µM	31.3 µM	11.2 µM	41.1 µM
O=S(=O)(Nc1ccc(Cl)c(C(F)(F)F)c1)c1ccc(-c2cnc(C3CC3)o2)cc1	0.162 µM	5.75 µM	1.09 µM	3.31 µM	0.713 µM	6.59 µM	0.624 µM	4.41 µM	0.0822 µM	> 23 µM	0.343 µM	3.67 µM	0.156 µM	5.57 µM	0.132 µM	5.23 µM
N#CC1=C(N)Oc2c(sc3c(F)cccc23)C1c1ccc([N+](=O)[O-])cc1 (stereo not drawn)	0.249 µM	1.66 µM	0.307 µM	1.46 µM	0.241 µM	1.71 µM	0.36 µM	2.17 µM	0.0478 µM	7.42 µM	0.17 µM	1.23 µM	0.0682 µM	1.41 µM	0.0367 µM	1.54 µM
CC1=COC2=C(C)C(=O)C(=O)c3c(C)ccc1c32		> 63.4 µM		19.6 µM		22.5 µM		16 µM		> 42.6 µM		> 40.1 µM		11.5 µM		8.92 µM
CCOC(=O)c1cc(C(=O)c2cc(OC)cc(OC)c2)n2ncccc12	2.97 µM	> 100 µM	14.7 µM	> 100 µM	7.45 µM	> 100 µM	> 100 µM	> 100 µM	0.573 µM	> 100 µM	0.738 µM	> 100 µM	0.587 µM	> 100 µM	1.31 µM	> 100 µM
C#C[C@]1(O)CC[C@H]2[C@@H]3CC=C4c5nc(Nc6ccc(OC)cc6OC)sc5CC[C@]4(C)[C@H]3CC[C@@]21C	1.39 µM	5.74 µM	2.17 µM	5.59 µM	0.845 µM	9.02 µM	0.655 µM	2.85 µM	0.523 µM	11.2 µM	1.23 µM	6.39 µM	1.3 µM	4.2 µM	0.978 µM	2.65 µM
CN(C)CCCC1(c2ccc(F)cc2)OCc2cc(-c3ccc4cc[nH]c4c3)ccc21 (stereo not drawn)	1.63 µM	3.11 µM	1.84 µM	3.48 µM	2.17 µM	5.36 µM	1.71 µM	3.32 µM	2.41 µM	5.41 µM	2.19 µM	4.72 µM	1.7 µM	3.14 µM	1.65 µM	3.24 µM
C/C=C(/C)C(=O)OC1C=C(CO)C(=O)C(OC(=O)/C(C)=C\C)C1C(C)C (stereo not drawn)	1.34 µM	2.62 µM	1.71 µM	3.27 µM	0.599 µM	1.8 µM	0.61 µM	1.63 µM	0.315 µM	3.69 µM	1.82 µM	3.47 µM	0.46 µM	1.86 µM	0.416 µM	2.16 µM
C[C@]12CC[C@@H]3c4ccc(O)cc4CC[C@H]3[C@@H]1CC[C@@H]2NS(=O)(=O)c1cccc(Br)c1	2.99 µM	11 µM	4.31 µM	15.9 µM	2.83 µM	12.2 µM	2.27 µM	7.58 µM	2.37 µM	7.63 µM	3.68 µM	12 µM	2.77 µM	11.1 µM	3.74 µM	10.9 µM
O=C(c1cccs1)c1c(C(F)(F)F)n([O-])c2cc(F)c(F)cc2[n+]1=O	1.25 µM	4 µM	6.65 µM	9.07 µM	2.62 µM	4.82 µM	0.79 µM	1.52 µM	0.096 µM	0.48 µM	5.44 µM	8.63 µM	0.851 µM	2.25 µM	1.31 µM	15.4 µM
COCCOC(C)C(/C=N/NC(N)=S)=N/NC(N)=S (stereo not drawn)	> 100 µM	> 100 µM	> 100 µM	> 100 µM	0.0574 µM	> 100 µM					> 100 µM	> 100 µM	> 100 µM	> 100 µM		
Cc1cc(N2CCN(C)CC2)nc(NC2CCCC(Nc3ccnc4cc(Cl)ccc34)C2)n1 (stereo not drawn)			1.97 µM	7.4 µM	3.35 µM	11.4 µM	1.82 µM	3.45 µM	0.643 µM	5.23 µM	1.99 µM	4.38 µM	0.973 µM	3.1 µM	1.39 µM	4.45 µM
Clc1ccc2c(NCCCN3CCN(c4nc(-n5ccnc5)nc5ccccc45)CC3)ccnc2c1	8.91 µM		> 100 µM	> 100 µM		> 100 µM	1.91 µM	3.56 µM	1.9 µM	5.7 µM	12.3 µM	> 22.1 µM	1.61 µM	3.8 µM		
COc1ccc2cc(C(=O)/C=C/c3ccc(OC)c(OC)c3)ccc2c1	21 µM	97.6 µM			20.2 µM	> 100 µM	> 100 µM	> 100 µM	2.04 µM	6.16 µM			3.11 µM	> 100 µM	1.43 µM	7.33 µM
CC1=CC(C)C(O)C(C)/C=C/C(O)C/C=C(/C)C(=O)CC(O)C(C)\C=C/C=C/C=C\C(=O)NC2=C(O)c3cc(C)c(O)c(c3C(=O)C2=O)C1=O (stereo not drawn)		> 100 µM		> 100 µM		> 100 µM				> 100 µM		> 100 µM		> 100 µM		65 µM
Cc1ccc(NC2=C(Cl)C(=O)c3nc(C)ccc3C2=O)cc1	1.36 µM	2.68 µM	1.67 µM	3.2 µM	1.19 µM	2.78 µM	1.75 µM	3.23 µM			1.82 µM	3.79 µM	0.694 µM	2.32 µM		
NC(C(=O)O)C(N)C(=O)O (stereo not drawn)		> 100 µM				> 100 µM		> 100 µM		> 100 µM		> 100 µM		> 100 µM		> 100 µM
O=C(NCCNCCO)c1ccc2oc3cc4ccccc4c(=O)n3c2c1	9.56 µM	29.6 µM			13.2 µM	> 50 µM	12.2 µM	24.1 µM	4.64 µM	> 50 µM	6.52 µM	15.5 µM				
COc1ccc2[nH]cc(/C=C3\C(=O)Nc4ccccc43)c2c1	4.12 µM	26.4 µM			5.89 µM	25.8 µM	11.2 µM	49.1 µM	1.96 µM	5.2 µM	10.2 µM	29.2 µM	3.86 µM	17.5 µM	2.45 µM	10.5 µM
O=C=Nc1ccc(Cc2ccc(N=C=O)cc2)cc1 (tested in a mixture with another compound)	> 25 µg/mL	> 25 µg/mL			> 25 µg/mL	> 25 µg/mL	> 25 µg/mL	> 25 µg/mL	> 25 µg/mL	> 25 µg/mL	> 25 µg/mL	> 25 µg/mL	> 25 µg/mL	> 25 µg/mL	> 25 µg/mL	> 25 µg/mL
Cc1ccnc2c1NC(=O)c1cccnc1N2C1CC1	> 100 µM	> 100 µM	> 100 µM	> 100 µM	> 100 µM	> 100 µM			> 100 µM	> 100 µM	> 100 µM	> 100 µM	> 100 µM	> 100 µM	> 100 µM	> 100 µM
CSC(=S)NN=C1CCCCC1		65.2 µM				> 100 µM		44.8 µM				> 100 µM		> 100 µM		> 100 µM
CC(=O)N1c2ccccc2C23CCN4CC5=CCOC(O)C(C5CC42)C13 (stereo not drawn)		> 100 µM		> 100 µM		> 100 µM		> 100 µM				> 100 µM		> 100 µM		> 100 µM
N#Cc1c(NC(=O)CCC(=O)O)ccc2ccccc12		> 100 µM				> 100 µM		> 100 µM				> 100 µM		> 100 µM		> 100 µM
C=CC1=C(C)C2=NC1=CC1=NC(=C(CC)/C1=C/O)C=C1C=C3C(=O)C(C(=O)OC)C(=C4NC(=C2)C(C)C4CCC(=O)OC/C=C(\C)CCCC(C)CCCC(C)CCCC(C)C)C3=N1 (stereo not drawn) (tested in a mixture with another compound)		> 100 µM		> 100 µM		> 100 µM				> 100 µM		> 100 µM		> 100 µM		> 100 µM
O=c1cccc(C#CCCCCOC2CCCO2)o1 (stereo not drawn)	11.4 µM	33.6 µM			6.73 µM	> 54.6 µM	16.5 µM	47 µM	20.4 µM	> 100 µM	12.7 µM	> 50.4 µM	19.5 µM	61.4 µM	8.73 µM	> 100 µM

— PubChem BioAssay (NCI)
